Test results as given in patent US20200181117A1, “SUBSTITUTED 3-HETEROARYLOXY-1H-PYRAZOLES AND SALTS THEREOF AND THEIR USE AS HERBICIDAL ACTIVE SUBSTANCES” (BAYER CROPSCIENCE AKTIENGESELLSCHAFT, priority 2017, published 2020).

Legend:
Type in all cases: in vivo
Viola tricolor [1] = assay: Post-emergence herbicidal action; conditions: 1280 g/ha, rated visually after about 3 weeks vs untreated controls
Procedure: (§1) A. Post-Emergence Herbicidal Action and Crop Plant Compatibility Seeds of monocotyledonous and dicotyledonous weeds and crop plants were placed in sandy loam in plastic or wood-fiber pots, covered with soil and cultivated in a greenhouse under controlled growth conditions. 2 to 3 weeks after sowing, the test plants were treated at the one-leaf stage. The compounds of the invention, formulated in the form of wettable powders (WP) or as emulsion concentrates (EC), were then sprayed onto the green parts of the plants as aqueous suspension or emulsion with addition of 0.5% additive at a water application rate of 600 l/ha (converted). After the test plants had been kept in the greenhouse under optimum growth conditions for about 3 weeks, the activity of the preparations was rated visually in comparison to untreated controls. For example, 100% activity=the plants have died, 0% activity=like control plants. Tables B1 to B15 below show the effects of selected compounds of the general formula (I) according to Table I on various harmful plants and an application rate corresponding to 1280 g/ha, which were obtained by the experimental procedure mentioned above.

Amaranthus retroflexus [2] = assay: Pre-emergence herbicidal action; conditions: 1280 g/ha, scored visually after about 3 weeks vs untreated controls
From the text: (§2) Pre-Emergence Herbicidal Action and Crop Plant Compatibility Seeds of monocotyledonous and dicotyledonous weed plants and crop plants were placed in plastic or wood fiber pots and covered with soil. The compounds of the invention, formulated in the form of wettable powders (WP) or as emulsion concentrates (EC), were then applied onto the surface of the covering soil as aqueous suspension or emulsion with addition of 0.5% additive at a water application rate of 600 l/ha (converted). After the treatment, the pots were placed in a greenhouse and kept under good growth conditions for the test plants. After about 3 weeks, the effect of the preparations was scored visually in comparison with untreated controls as percentages. For example, 100% activity=the plants have died, 0% activity=like control plants. Tables C1 to C14 below show the effects of selected compounds of the general formula (I) according to Table I on various harmful plants and an application rate corresponding to 1280 g/ha, which were obtained by the experimental procedure mentioned above.

Alopecurus myosuroides [3] = assay: Pre-emergence herbicidal action; conditions: 1280 g/ha, scored visually after about 3 weeks vs untreated controls
From the text: as §2

Abutilon theophrasti [4] = assay: Pre-emergence herbicidal action; conditions: 1280 g/ha, scored visually after about 3 weeks vs untreated controls
From the text: as §2

Setaria viridis [5] = assay: Pre-emergence herbicidal action; conditions: 1280 g/ha, scored visually after about 3 weeks vs untreated controls
From the text: as §2

Veronica persica = assay: Pre-emergence herbicidal action; conditions: 1280 g/ha, scored visually after about 3 weeks vs untreated controls
From the text: as §2

Stellaria media [6] = assay: Pre-emergence herbicidal action; conditions: 1280 g/ha, scored visually after about 3 weeks vs untreated controls
From the text: as §2

Polygonum convolvulus [7] = assay: Pre-emergence herbicidal action; conditions: 1280 g/ha, scored visually after about 3 weeks vs untreated controls
From the text: as §2

Matricaria inodora = assay: Pre-emergence herbicidal action; conditions: 1280 g/ha, scored visually after about 3 weeks vs untreated controls
From the text: as §2

Viola tricolor [8] = assay: Pre-emergence herbicidal action; conditions: 1280 g/ha, scored visually after about 3 weeks vs untreated controls
From the text: as §2

Avena fatua = assay: Pre-emergence herbicidal action; conditions: 1280 g/ha, scored visually after about 3 weeks vs untreated controls
From the text: as §2

Amaranthus retroflexus [9] = assay: Post-emergence herbicidal action; conditions: 1280 g/ha, rated visually after about 3 weeks vs untreated controls
Procedure: as §1

Abutilon theophrasti [10] = assay: Post-emergence herbicidal action; conditions: 1280 g/ha, rated visually after about 3 weeks vs untreated controls
Procedure: as §1

Setaria viridis [11] = assay: Post-emergence herbicidal action; conditions: 1280 g/ha, rated visually after about 3 weeks vs untreated controls
Procedure: as §1

Stellaria media [12] = assay: Post-emergence herbicidal action; conditions: 1280 g/ha, rated visually after about 3 weeks vs untreated controls
Procedure: as §1

Pharbitis purpurea = assay: Post-emergence herbicidal action; conditions: 1280 g/ha, rated visually after about 3 weeks vs untreated controls
Procedure: as §1

Echinochloa crus-galli = assay: Pre-emergence herbicidal action; conditions: 1280 g/ha, scored visually after about 3 weeks vs untreated controls
From the text: as §2

Polygonum convolvulus [13] = assay: Post-emergence herbicidal action; conditions: 1280 g/ha, rated visually after about 3 weeks vs untreated controls
Procedure: as §1

Alopecurus myosuroides [14] = assay: Post-emergence herbicidal action; conditions: 1280 g/ha, rated visually after about 3 weeks vs untreated controls
Procedure: as §1

Hordeum murinum = assay: Pre-emergence herbicidal action; conditions: 1280 g/ha, scored visually after about 3 weeks vs untreated controls
From the text: as §2

Lolium rigidum = assay: Pre-emergence herbicidal action; conditions: 1280 g/ha, scored visually after about 3 weeks vs untreated controls
From the text: as §2

SMILES | herbicidal activity on Viola tricolor (Viola tricolor [1]) [%] | herbicidal activity on Amaranthus retroflexus (Amaranthus retroflexus [2]) [%] | herbicidal activity on Alopecurus myosuroides (Alopecurus myosuroides [3]) [%] | herbicidal activity on Abutilon theophrasti (Abutilon theophrasti [4]) [%] | herbicidal activity on Setaria viridis (Setaria viridis [5]) [%] | herbicidal activity on Veronica persica (Veronica persica) [%] | herbicidal activity on Stellaria media (Stellaria media [6]) [%] | herbicidal activity on Polygonum convolvulus (Polygonum convolvulus [7]) [%] | herbicidal activity on Matricaria inodora (Matricaria inodora) [%] | herbicidal activity on Viola tricolor (Viola tricolor [8]) [%] | herbicidal activity on Amaranthus retroflexus (Amaranthus retroflexus [9]) [%] | herbicidal activity on Abutilon theophrasti (Abutilon theophrasti [10]) [%] | herbicidal activity on Echinochloa crus-galli (Echinochloa crus-galli) [%] | herbicidal activity on Polygonum convolvulus (Polygonum convolvulus [13]) [%] | other results
CC(C)n1cc(Sc2ccc(F)cc2)c(Oc2ncccn2)n1 [Example I-039] | 100 | 100 | 100 | 100 | 90 | 100 | 100 | 90 | 90 | 100 | – | – | – | – | herbicidal activity on Avena fatua (Avena fatua): 90%
CCn1cc(Sc2ccccc2)c(Oc2ncc(Cl)cn2)n1 [Example I-138] | 80 | – | – | 80 | 100 | 100 | – | 80 | – | 90 | – | – | – | – | –
CCc1c(Sc2cccc(F)c2)c(Oc2ncc(F)cn2)nn1C [Example I-203] | 100 | 100 | 90 | 90 | 100 | 100 | 80 | 80 | 80 | 90 | 100 | 100 | 80 | – | herbicidal activity on Setaria viridis (Setaria viridis [11]): 90%; herbicidal activity on Stellaria media (Stellaria media [12]): 90%; herbicidal activity on Pharbitis purpurea (Pharbitis purpurea): 90%
CCc1c(Sc2cccc(Cl)c2)c(Oc2ncccn2)nn1C [Example I-035] | 100 | 90 | – | – | 90 | – | – | – | – | 100 | – | 100 | – | 100 | herbicidal activity on Stellaria media (Stellaria media [12]): 80%
CCn1cc(Sc2ccc(F)cc2)c(Oc2ncc(Cl)cn2)n1 [Example I-121] | 80 | 100 | – | – | 90 | 100 | 80 | 90 | – | 100 | 80 | – | – | 80 | –
CCc1c(Sc2ccccc2)c(Oc2ncccn2)nn1C [Example I-063] | 100 | 100 | 100 | 100 | 100 | – | 90 | 100 | 100 | 100 | 100 | 100 | 100 | – | herbicidal activity on Alopecurus myosuroides (Alopecurus myosuroides [14]): 100%; herbicidal activity on Setaria viridis (Setaria viridis [11]): 80%; herbicidal activity on Hordeum murinum (Hordeum murinum): 100%; herbicidal activity on Avena fatua (Avena fatua): 100%
Cn1cc(Sc2ccc(Cl)cc2)c(Oc2cnc(Cl)nc2)n1 [Example I-230] | 80 | – | – | – | – | – | – | – | – | – | – | – | – | – | –
CCn1cc(Sc2ccc(Cl)cc2)c(Oc2ncc(F)cn2)n1 [Example I-160] | 100 | – | – | – | – | 100 | – | 80 | – | 100 | – | – | – | – | –
Cc1ccnc(Oc2nn(C)c(C)c2Sc2cccc(Cl)c2)n1 [Example I-096] | – | 100 | 100 | 100 | 100 | 100 | 90 | 100 | 100 | 100 | – | 80 | 80 | – | –
Cc1c(Sc2ccc(F)cc2F)c(Oc2ncc(F)cn2)nn1C [Example I-115] | 100 | 100 | 90 | 100 | 100 | 100 | 90 | 90 | 90 | 100 | 100 | 100 | 100 | 90 | herbicidal activity on Setaria viridis (Setaria viridis [11]): 100%; herbicidal activity on Stellaria media (Stellaria media [12]): 100%; herbicidal activity on Lolium rigidum (Lolium rigidum): 80%
CCc1c(Sc2ccc(F)cc2)c(Oc2ncccn2)nn1C [Example I-064] | 100 | 100 | 90 | 100 | 100 | 100 | 100 | 100 | 90 | 100 | 100 | 80 | 90 | 100 | herbicidal activity on Setaria viridis (Setaria viridis [11]): 100%; herbicidal activity on Stellaria media (Stellaria media [12]): 100%
CCn1cc(Sc2ccccc2)c(Oc2ncccn2)n1 [Example I-042] | – | 80 | – | – | 80 | 100 | 100 | – | 90 | 90 | – | – | – | 80 | –
COc1cnc(Oc2nn(C)c(C)c2Sc2ccc(F)cc2Cl)nc1 [Example I-156] | 100 | 100 | – | 90 | 100 | – | 100 | 100 | 100 | 100 | 100 | – | 80 | 80 | –
CCc1c(Sc2cccc(Cl)c2)c(Oc2ncc(F)cn2)nn1C [Example I-034] | 100 | 100 | – | 80 | 100 | – | 90 | – | – | 100 | 100 | 80 | – | – | herbicidal activity on Pharbitis purpurea (Pharbitis purpurea): 90%
